Test results from patent publication US12611492B2, “Local drug delivery devices and methods for treating cancer” (Massachusetts Institute of Technology, priority 2013, dated 2026).

Tested on: pancreatic xenografts
Conditions: NOD/SCID/γc, mouse, in vivo, iv
Source text: To quantify intratumoral drug distribution, serial sections of the tumor perpendicular to the PED were imaged by quantitative confocal microscopy. […] Tissue penetration within the tumor was quantified by line scans starting from the entry site for paclitaxel (PED—tumor/device interface; IV—vessels).

- paclitaxel presence radius around the vessels: ≤ 10 micron
SMILES: CC(=O)O[C@H]1C(=O)[C@@]2(C)[C@H]([C@H](OC(=O)c3ccccc3)[C@]3(O)C[C@H](OC(=O)[C@H](O)[C@@H](NC(=O)c4ccccc4)c4ccccc4)C(C)=C1C3(C)C)[C@]1(OC(C)=O)CO[C@@H]1C[C@@H]2O [paclitaxel]
